Measurements reported in patent US20090227518A1, “COMPOSITIONS AND METHODS FOR TREATING ACTIN-MEDIATED MEDICAL CONDITIONS” (The Regents of the University of Colorado, priority 2005, published 2009).

How the values were obtained:
[1] = tested on: HIV-1 strain A018A; assay type: cell-based, human; conditions: alone or in combination
From the text: The MAGI (Multinuclear Activation of a Galactosidase Indicator)-CCR-5 cell line is a clone derived from the HeLa cell line that expresses high levels of CD4. It has been transfected with a single integrated copy of a galactosidase gene under control of the HIV-1 long terminal repeat. β-Galactosidase is expressed upon production of HIV-1 Tat protein following one round of HIV-1 replication within the cell. The MAGI-CCR-5 cell line is derived from MAGI cells into which the CCR-5 HIV-1 co-receptor gene has been incorporated. These cells constitute an assay for early infection events and can be infected with either lymphocyte-tropic or macrophage-tropic HIV-1 strains.
Cells were cultured in polystyrene T-175 flasks in medium until cells were noted to be in log growth phase. Cells were then resuspended in fresh medium and aliquoted into 24-well polystyrene plates at 4×10^4 cells per well (1.0 ml total volume). After 24 hr incubation adherent cells were 30-40% confluent and medium was removed. Two hundred μl of fresh medium was then added to each well without (negative control) or with AAT and incubated for 1 hour. AAT diluent was added to a separate well at a volume equivalent to that of the highest concentration of AAT tested (control).
One hundred thirty TCID50 of HIV-1 and DEAE dextran in medium were added to each well. T-cell tropic HIV-1 strain A018A was used. After 2 hr incubation, medium was added to each well to adjust the final volume of each well to 500 μl. Cultures were incubated for 48 hr, which allowed infection of the MAGI-CCR-5 cells. Medium was aspirated and the cells fixed for 5.0 min at room temperature by adding 1.0 ml of a 1% formaldehyde/0.2% glutaraldehyde solution in phosphate buffered saline (PBS). Fixing solution was then aspirated and cells washed with PBS. This was followed by addition of galactosidase staining solution. Fifty minutes of incubation was followed by a blinded optical count of pigmented cells under a microscope.
The MAGI-CCR-5 cell assay evaluates early events in the HIV-1 infection process. These events include cell-surface binding and internalization, uncoating, reverse transcription and translation, protein processing and Tat activity. Binding of the tat protein to a reporter construct within the MAGI-CCR-5 cells enables quantification of these early HIV-1 events.

[2] = tested on: peritoneal cellular infiltrate; assay: Thioglycolate-elicited peritoneal infiltration; assay type: in vivo, mice; conditions: 1 mg
Method: Peritoneal lavage was performed at 24 and 48 hours (thioglycolate) or on days 1-5 (allogeneic cells). For lavage, mice were anesthetized by isoflurane inhalation and injected immediately with 5.5 ml cold PBS containing 5% FCS and 5 U/ml heparin into the peritoneal cavity. After massaging the abdomen, peritoneal fluid was recovered with an 18.5 G needle and syringe. Recovered volumes ranged from 4.5 to 5.5 ml. Red blood cells were lysed (RBC lysing buffer, BD PharMingen) and cell counts were performed with a hemocytometer. Cells were then centrifuged and the pellet was resuspended in wash buffer containing 2% BSA, 0.1% sodium azide and 0.1% EDTA. Cells were kept at 4° C. throughout the staining procedure. Cells (at least 1×10^6/polypropylene vial) were incubated with FcγRIII/II receptor blocking antibodies (Table 1) for 10 min. […] The number of cells expressing a particular marker was calculated by multiplying percentages obtained from flow-cytometry by the concentration of cells in lavage fluid.
To address the possibility that AAT affects immune cell infiltration, two models of cell emigration were examined: thioglycolate (ThG)-elicited peritoneal infiltration, and cellular infiltration due to intraperitoneal injection of MHC-incompatible fibroblasts. […] Peritoneal lavage was performed 24 and 48 hours later and cells were counted and stained with specific antibodies for FACS analysis.

[3] = target: porcine elastase (Sus scrofa, UniProt P00772); assay: Elastase neutralization assay; assay type: biochemical; conditions: cleavable color-generating substrate
Sequence of porcine elastase (P00772 27-266): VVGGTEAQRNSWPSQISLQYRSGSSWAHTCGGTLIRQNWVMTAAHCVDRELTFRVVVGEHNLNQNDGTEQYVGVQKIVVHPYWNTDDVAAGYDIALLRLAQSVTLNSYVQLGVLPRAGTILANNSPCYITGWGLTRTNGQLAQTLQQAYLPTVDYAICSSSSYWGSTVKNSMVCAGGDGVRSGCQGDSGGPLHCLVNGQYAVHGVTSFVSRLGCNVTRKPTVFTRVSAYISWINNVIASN
Method: The anti-serine protease function of AAT was examined for its role in the inhibitory effects on HIV-1. AAT was modified to reduce its serine protease inhibitory function to undetectable levels. Quantitation of the anti-protease activity of AAT was determined using an elastase neutralization assay. In this assay porcine elastase was incubated with a cleavable substrate. Upon cleavage of the substrate by elastase, a color-generating product was released, which was quantitated using a spectrophotometer. […] The inactivated AAT was then added to U1 cells, which was then stimulated with IL-18 and compared to native AAT.

[4] = tested on: HIV-1; assay: U1 monocytic cell assay (HIV-1 p24 antigen); conditions: same experimental condition as in Example 7
Method: The U1 cell line was derived from human monocytic U937 cells into which 2 copies of HIV-1 provirus were incorporated into host genome. […] U1 cells were maintained in T-175 polystyrene flasks (Falcon, Becton Dickinson, Franklin Lakes, N.J.) in medium and used when in log phase growth. Cells were counted in a hemacytometer, examined for viability by Trypan blue exclusion (>95% for all experiments) and resuspended in fresh medium at 2×10^6 per ml. Two-hundred fifty μl of cell suspension were added to wells of 24-well polystyrene tissue culture plates (Falcon), followed by the addition of medium or AAT to produce the final concentration to be tested in a volume of 450 μl. After 1.0 hr of incubation (37° C., 5% CO2), 50 μl of medium (control) or stimulus diluted in medium were added to wells to produce the final concentration of stimulus to be tested. The final culture volumes were 500 μl and contained 1×10^6 cells per ml. […]
Data are presented as means±SEM. […] For data expressed as percent change, the values for p24 in control cultures (medium alone) were subtracted from those for each culture-containing stimulus. […] Percent p24 in cultures containing stimulus and AAT were calculated by dividing the measured p24 by that present in cultures containing stimulus alone. The resultant fraction was expressed as a percent.

[5] = tested on: NF-κB; assay: IL-18-induced NF-κB expression; assay type: cell-based; conditions: induced by IL-18
From the text: P3 inh is also known as CE-2072 or (benzyloxycarbonyl)-L-valyl-N-[1-(2-(3-methylbenzyl)-1,3,4-oxadiazolyl]carbonyl)-2-(S)-methylpropyl]-L-prolinamide. Methods of preparing P3 inh and its derivatives are disclosed in U.S. Pat. No. 5,807,829, which is incorporated by reference herein. […] A band that corresponds to IL-18-induced NF-κB was much larger than NF-κB in controls not stimulated by IL-18. […] This was an unexpected observation as these compounds are not known to interfere with NF-κB expression.

[6] = target: F-actin (filamentous actin); assay: F-actin co-sedimentation, 150,000 x g, SDS-PAGE densitometry, eight replicates
[7] = tested on: F-actin; assay: F-actin filament depolymerization; assay type: biochemical; conditions: added to preformed F-actin filaments
Method: In separate experiments (data not shown), F-actin filaments were produced and AAT was added to determine if AAT had depolymerization properties. As a control, Getsolin™, a protein that has known depolymerization properties, was added to F-actin filaments.

Compound | antiviral activity in MAGI cultures [1] | other results
FLFCI: short peptide homologous/analogous to the C-terminal region of AAT | active | –
FAFLM: short peptide homologous/analogous to the C-terminal region of AAT | active | –
FVFAM: short peptide homologous/analogous to the C-terminal region of AAT | active | –
FVFLM: short peptide from the C-terminal region of AAT | active | –
FVFLA: short peptide homologous/analogous to the C-terminal region of AAT | active | –
FLVFI: short peptide homologous/analogous to the C-terminal region of AAT | active | –
FIIMI: short peptide homologous/analogous to the C-terminal region of AAT | active | –
FLMFI: short peptide homologous/analogous to the C-terminal region of AAT | active | –
FVALM: short peptide homologous/analogous to the C-terminal region of AAT | active | –
FLFFI: short peptide homologous/analogous to the C-terminal region of AAT | active | –
FMLLI: short peptide homologous/analogous to the C-terminal region of AAT | active | –
FLFLI: short peptide homologous/analogous to the C-terminal region of AAT | active | –
Oxidized AAT: AAT oxidized by myeloperoxidase (MPO) system; loss of activity confirmed by elastase activity assay | – | cellular infiltrate [2]: did not affect cellular infiltrate; anti-protease (elastase inhibitory) activity [3]: Loss of activity
FLFVV: short peptide homologous/analogous to the C-terminal region of AAT | active | –
FLFAV: short peptide homologous/analogous to the C-terminal region of AAT | active | –
FLFVL: short peptide homologous/analogous to the C-terminal region of AAT | active | –
FLMII: short peptide homologous/analogous to the C-terminal region of AAT | active | –
Cc1cccc(Cc2nnc(C(=O)C(NC(=O)[C@@H]3CCCN3C(=O)[C@@H](NC(=O)OCc3ccccc3)C(C)C)C(C)C)o2)c1 (stereo partly shown) [P3 inh] | – | anti-HIV-1 effect [4]: significant anti-HIV-1 effect; NF-κB expression [5]: reduced
α1-antitrypsin (AAT), purified from human plasma | – | fold increase in actin-sedimented AAT against AAT only [6]: 1.7 fold; percentage of AAT sedimented in the presence of actin (AAT only = 100%) [6]: 268%
gelsolin | – | depolymerization of F-actin filaments [7]: actively dissociate
FVYLI: carboxyterminal peptide analyzed for its effect on HIV-1 | active | –
AVFLM: short peptide homologous/analogous to the C-terminal region of AAT | active | –
